The target in one experiment is RET-V804M (Homo sapiens, UniProt P07949, V804M). Put plainly: RET inhibition experiment (HTRF KinEASE-TK kit), mutant RET-V804M. Type of experiment: biochemical. To be noted: read-out: The IC50 (nM) for inhibiting V804M. A digest of the protocol:
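Enzyme was pre-incubated with compound at room temperature for 30 min, then substrate and ATP were added for a 40 min reaction. HTRF signal was read after 45 min with TK antibody-cryptate and streptavidin-XL665. IC50 came from a four-parameter fit of percent inhibition against DMSO and no-enzyme controls.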

Another experiment deals with T1, RET-CCDC6 (Homo sapiens, UniProt P07949).
T1 construct: CCDC6 fusion partner (Q16204 for human); the other entry of the earlier key: CCDC6 (Q16204, Coiled-coil domain-containing protein 6)
T1 sequence (P07949 with tags, fused parts or gaps): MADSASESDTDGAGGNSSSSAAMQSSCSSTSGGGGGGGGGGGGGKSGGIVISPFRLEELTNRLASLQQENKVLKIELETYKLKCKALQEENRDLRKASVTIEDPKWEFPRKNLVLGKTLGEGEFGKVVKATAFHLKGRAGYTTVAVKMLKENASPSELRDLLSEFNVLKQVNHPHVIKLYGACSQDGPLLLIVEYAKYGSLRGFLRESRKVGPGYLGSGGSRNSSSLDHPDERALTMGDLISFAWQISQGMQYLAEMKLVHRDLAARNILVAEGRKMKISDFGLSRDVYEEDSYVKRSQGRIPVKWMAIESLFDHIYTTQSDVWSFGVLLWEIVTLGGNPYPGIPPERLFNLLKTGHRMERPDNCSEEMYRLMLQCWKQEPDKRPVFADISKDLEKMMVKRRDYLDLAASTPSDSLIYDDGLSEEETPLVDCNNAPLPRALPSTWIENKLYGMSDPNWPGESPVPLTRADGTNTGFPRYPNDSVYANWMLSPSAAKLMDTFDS
Put plainly: RET inhibition experiment (HTRF KinEASE-TK kit), fusion-type RET enzyme. The experiment is classed as biochemical. To be noted: read-out: The IC50 (nM) for inhibiting RET-CCDC6. How it is done: (§1) Experimental method: […] After incubation at room temperature for 40 min, TK antibody-cryptate and streptavidin-XL665 were added, and the test was performed after incubation at room temperature for 45 min. With the solvent group (DMSO) as the negative control and the buffer group (without RET enzyme) as the blank control, the relative inhibitory activity percentages (i.e., inhibition rates) of different concentrations of the compounds were computed as per the following formula: […] The relative inhibitory activity percentages of different concentrations of the compounds were plotted with respect to the compound concentrations, and the curve was fitted according to a four-parameter model to compute the IC50 value as per the following formula: y=min+(max-min)/(1+(x/IC50)^(-Hillslope)) where y is the relative inhibitory activity percentage, max is the maximum value of the fitted curve, min is the minimum value of the fitted curve, x is the logarithmic concentration of the compound, and Hillslope is the slope of the curve.

The target in another experiment is RET-M918T (Homo sapiens, UniProt P07949, M918T). Put plainly: RET inhibition experiment (HTRF KinEASE-TK kit), mutant RET-M918T. The following applies: read-out: The IC50 (nM) for inhibiting the enzyme RET-M918T. Type of experiment: biochemical. Here is the method:
as §1

For experiment [1], the system named is human medullary thyroid carcinoma TT cells. Briefly: Efficacy test in mice, subcutaneous xenograft tumor of TT cells. To be noted: 5 mg/kg, PO, BID; TT nude mouse xenograft. The experiment is classed as in vivo, Balb/c-nu mouse. How it is done: Experimental purpose: To evaluate the in vivo efficacy of Compound 17 and BLU-667 in a Balb/c-nu mouse model with a subcutaneous xenograft tumor of human medullary thyroid carcinoma TT cells.
Drug preparation: Compound 17 was dissolved in 0.1 M aqueous solution of H3PO4, and BLU-667 was dissolved in 0.1 M aqueous solution of HOAc, to prepare clear solutions (pH: about 4.0). An aqueous solution of H3PO4 at a pH of about 4.0 was used for the solvent control group. The mode of administration was PO, BID.
Tumor measurement: The tumor diameter was measured with a vernier caliper twice a week. The computing formula of the tumor volume is: V=0.5×a×b^2, where a represents a long diameter of the tumor, and b represents a short diameter of the tumor. Evaluation of tumor growth inhibition rate (TGI (%)) for tumor inhibition efficacy of the compounds: TGI (%)=[(1-(mean tumor volume of a treatment group at the end of drug administration-mean tumor volume of the treatment group at the commencement of drug administration))/(mean tumor volume of a solvent control group at the end of treatment-mean tumor volume of the solvent control group at the commencement of treatment)]×100%.
Statistical analysis: Prism Graphpad5.0 software was used for statistical analysis based on the relative tumor volume at the end of the experiment. The comparison between multiple groups was analyzed by two-way ANOVA, and p<0.05 was considered as a significant difference.
Experimental results: In the TT nude mouse xenograft model of human medullary thyroid carcinoma, Compound 17 has a significant […] anti-tumor effect at a dose of 5 mg/kg. […] Relative tumor growth rate T/C (%)=TRTV/CRTV×100%, where TRTV is the mean relative tumor volume of the test compound group, CRTV is the relative tumor volume of the solvent control group; and the relative tumor volume RTV=Vt/V0, where V0 is the mean tumor volume at the commencement of the administration, and Vt is the mean tumor volume measured on day t after the administration.

The next experiment deals with RET-WT (Homo sapiens, UniProt P07949). Put plainly: RET inhibition experiment (HTRF KinEASE-TK kit), wild-type RET enzyme. The experiment is classed as biochemical. The following applies: read-out: The IC50 (nM) for inhibiting RET-WT. How it is done: as §1
Sequence of RET-WT (P07949 29-1114): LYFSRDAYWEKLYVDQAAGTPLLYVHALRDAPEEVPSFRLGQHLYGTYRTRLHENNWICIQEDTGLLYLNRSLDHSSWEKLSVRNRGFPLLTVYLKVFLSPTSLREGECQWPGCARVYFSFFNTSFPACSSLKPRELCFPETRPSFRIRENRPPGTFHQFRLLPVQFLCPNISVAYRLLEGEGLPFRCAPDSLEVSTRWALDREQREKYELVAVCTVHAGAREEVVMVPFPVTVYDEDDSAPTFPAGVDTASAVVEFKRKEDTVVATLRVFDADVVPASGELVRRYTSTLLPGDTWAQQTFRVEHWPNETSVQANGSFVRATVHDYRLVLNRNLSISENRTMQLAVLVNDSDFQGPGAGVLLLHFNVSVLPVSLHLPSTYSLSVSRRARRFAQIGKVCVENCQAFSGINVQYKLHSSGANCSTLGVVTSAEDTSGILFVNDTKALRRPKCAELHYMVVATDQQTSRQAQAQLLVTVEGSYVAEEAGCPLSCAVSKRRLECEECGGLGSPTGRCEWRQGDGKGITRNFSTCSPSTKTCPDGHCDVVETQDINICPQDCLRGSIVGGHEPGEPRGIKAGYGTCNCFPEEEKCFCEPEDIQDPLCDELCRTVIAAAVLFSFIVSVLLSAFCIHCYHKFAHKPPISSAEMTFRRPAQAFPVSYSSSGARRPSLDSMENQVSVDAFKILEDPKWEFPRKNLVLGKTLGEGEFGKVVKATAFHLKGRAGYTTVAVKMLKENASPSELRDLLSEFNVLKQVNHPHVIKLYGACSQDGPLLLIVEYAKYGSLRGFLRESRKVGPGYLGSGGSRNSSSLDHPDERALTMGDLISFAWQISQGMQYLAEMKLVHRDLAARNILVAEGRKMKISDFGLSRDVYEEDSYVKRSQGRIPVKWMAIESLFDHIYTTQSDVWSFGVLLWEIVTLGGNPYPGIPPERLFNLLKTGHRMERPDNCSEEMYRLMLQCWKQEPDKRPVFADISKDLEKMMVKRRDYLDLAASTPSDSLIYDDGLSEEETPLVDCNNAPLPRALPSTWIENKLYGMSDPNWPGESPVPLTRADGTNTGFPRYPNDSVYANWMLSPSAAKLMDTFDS
For a further experiment, the target named is RET-V804L (Homo sapiens, UniProt P07949, V804L). Put plainly: RET inhibition experiment (HTRF KinEASE-TK kit), mutant RET-V804L. The experiment is classed as biochemical. To be noted: read-out: The IC50 (nM) for inhibiting RET-V804L. Here is the method: as §1
Sequence of RET-V804L (P07949 29-1114 V804L): as the sequence (P07949 29-1114) above, with V776L counted along it

Each structure is given as a SMILES string.

The text below walks through data of US20220144847A1, “HETEROCYCLIC COMPOUND, PHARMACEUTICAL COMPOSITION COMPRISING SAME, PREPARATION METHOD THEREFOR, AND USE THEREOF” (Sichuan Kelun-Biotech Biopharmaceutical Co., Ltd., priority 2019, published 2022).

Sequence of RET-M918T (P07949 29-1114 M918T): as the sequence (P07949 29-1114) above, with M890T counted along it
Sequence of RET-V804M (P07949 29-1114 V804M): as the sequence (P07949 29-1114) above, with V776M counted along it

For the compound `Cc1cc(Nc2cc(C)[nH]n2)nc(-c2ccc(N3CC4CC(C3)N4Cc3ccc(-n4cc(F)cn4)nc3)nc2)n1` [Compound 17, 2-(6-(6-((6-(4-fluoro-1H-pyrazol-1-yl)pyridin-3-yl)methyl)-3,6-diazabicyclo[3.1.1]heptan-3-yl)pyridin-3-yl)-6-methyl-N-(5-methyl-1H-pyrazol-3-yl)pyrimidin-4-amine], the half-maximal inhibitory concentration (IC50) worked out at 1.03 ± 0.47 nM on RET-V804M; 2.5 ± 0.55 nM on RET-CCDC6; 1.47 ± 0.29 nM at RET-M918T; 1.32 ± 0.31 nM on RET-WT; 6.54 ± 2.43 nM on RET-V804L. For the same compound, the “Relative tumor growth rate T/C” value in experiment [1] was determined as 17.44%. The “Tumor growth inhibition rate TGI” value in experiment [1] stood at 131.36%.
